Data on 21 compounds can be found in paper PMC12415213, “A genome-scale drug discovery pipeline uncovers therapeutic targets and a unique p97 allosteric binding site in Schistosoma mansoni” (Proceedings of the National Academy of Sciences of the …, 2025).

Assay [1] relates to S. mansoni vcp/p97 (Smp_018240). The assay is described as follows: High-throughput screen of S. mansoni p97 (Kinase-Glo, single concentration). The format is biochemical, Schistosoma mansoni. Conditions: for Screen Inhibition (%): 10 μM compound, normalized to CB-5083 control; for inhibition of S. mansoni p97 function in the screen: high-throughput screen, 10 μM. Here is the method: (§1) Evaluation of p97’s ATPase activity and compound potency
(§2) For manual ATP consumption assays, 1 µM p97 was incubated with 1% DMSO or inhibitor (1% DMSO final) in assay buffer [50 mM Tris (pH 7.5), 20 mM MgCl2, 1 mM EDTA, 0.5 mM tris(2-carboxyethyl)phosphine (TCEP)] for 5 minutes prior to the addition of 20 µM ATP in a 384-well plate for a total reaction volume of 10 µL, and a final concentration of 500nM enzyme and 10 µM ATP. The reaction was allowed to proceed for 50 minutes at room temperature before adding equivalent volume of Kinase-Glo Plus reagent (Promega), and a further incubation of 10 minutes in the dark. […]
High-throughput screening (HTS) assay
Kinase-Glo (Promega, part K1214) was purchased from Promega. Microtiter plates (384 wells) were purchased from Perkin Elmer. All chemicals included in the UTSW library were sourced from commercial sources […]
TimTec (500)] or UT Southwestern chemists (https://www.utsouthwestern.edu/research/core-facilities/high- […]
throughput-screening/libraries/). […]
concentration of 10 µM (0.2% DMSO). Luminescence was read by EnVision multimode plate reader (Perkin-Elmer). Assay conditions were consistent between manual and high-throughput assays [10 µM ATP, 50 mM Tris (pH 7.5), 20 mM MgCl2, 1 mM EDTA, 0.5 mM tris(2-carboxyethyl)phosphine (TCEP)]. The plates were then incubated for 50 min at room temperature before addition of Kinase-Glo reagent and further incubation in the dark for 10 minutes before reading luminescence. […]
were obtained to determine activity of compounds on the enzyme. […]

Assay [2] concerns the target S. mansoni p97 (Smp_018240) (Schistosoma mansoni, UniProt G4M0P7). The class given is biochemical. Here is the method: as §1
as §2, with “dark. Luminescence was read using a BioTek Synergy 2 plate reader” for “dark.”
1 μM, 500 nM, 100 nM, 50 nM, 10 nM, 5 nM, 1 nM, and 0 nM) in triplicate, maintaining a concentration of 1% […]
were calculated using GraphPad Prism. […]

Another assay addresses T1, H. sapiens p97 (P55072) (Homo sapiens, UniProt P55072).
T1 construct: purified recombinant full-length (1-806aa) H; 6xHis (N); made in house; host or cells: E. coli BL21 (DE3)
Description: Kinase-Glo ATP consumption assay, recombinant H. sapiens p97. The class given is biochemical. Particulars: 100 μM to 1 nM.

The next assay deals with adult S. mansoni. Description: Single-concentration (10 μM) treatment of adult worms, attachment and morphology. The class given is cell-based, Schistosoma mansoni. Conditions: in vitro culture. Here is the method:
(§3) DMSO). All selected compounds were obtained from commercial vendors (Medchemexpress, Selleck Chemicals, Sigma-Aldrich, ApexBio, Tocris, Santa Cruz Biotechnology, and Cayman Chemical Company) (Dataset S4) with […]
the activity of the desired compounds. Roughly 5 adult worm pairs were placed in 3mL Basch medium in a 12-well culture vessel, and incubated at 37° C, 5% CO2 for the length of the experiment. Compound was administered at D0, D1, and D2, media and drug refreshed every 24 hr. Worms were then allowed to remain in culture until D5, where a final assessment of worm attachment to tissue culture substate was made by light microscopy.
Observations on movement and morphology were also recorded. A negative control (0.1% DMSO) and positive control (PZQ; 10 µM in 0.1% DMSO) were included in each experiment, and each experiment was repeated in triplicate for validation. […]

In assay [3] the test system is K48 polyubiquitinated proteins in adult S. mansoni. The assay is described as follows: Western blot of K48 polyubiquitinated proteins in lysate of drug-treated worms. Particulars: adult worm lysate after 48 h of treatment. The class given is cell-based, Schistosoma mansoni. As to the method: as §3
the activity of the desired compounds. Roughly 5 adult worm pairs were placed in 3mL Basch medium in a 12-well culture vessel, and incubated at 37° C, 5% CO2 for the length of the experiment. […]
For drug treatment studies, 10 male adult worms (single or paired with females) were supplemented with either 0.1% DMSO or inhibitor (0.1% DMSO final). For all experiments assessing on-target effects of potential parasite […]
After 48 hr, male parasites were separated […]
further processing. Male worm samples were homogenized with a pestle in 50 µL lysis buffer containing 2X […]
(Roche, cOmplete Mini, EDTA-free Tablets) and 10 mM DTT. The lysates were then sonicated on high for 5 min (30 sec on, 30 sec off) using a Bioruptor UCD-200. Lysates were centrifuged for 5 min at 10,000 g to remove […]
debris. Total protein was measured using the Detergent Compatible Bradford Assay (Pierce). 50 µg of protein samples denatured in SDS Sample buffer (95°C for 5 min) were separated on a Bio-Rad 4-20% TGX Stain-Free gel along with Precision Plus Protein Dual Color Standards (Bio-Rad) as a marker. Proteins were then transferred to a nitrocellulose membrane (Bio-Rad). The membrane was blocked in a 1:5 solution of Li-Cor Odyssey Blocking buffer in PBST for 1 hr before being immunoblotted overnight at 4°C with 1:500 K48-linkage Specific […]
(1:10,000) (Developmental Studies Hybridoma Bank, JLA20) diluted in a 1:5 solution of Li-Cor Odyssey Blocking buffer in PBST. The membrane was washed 3x in TBST and then incubated in 1:5 Li-Cor Odyssey […]
in TBST 3x before being imaged on a LiCor Odyssey Infrared Imager. […]

Setting [4] is: H. sapiens p97 IC50 versus S. mansoni p97 IC50.
The mark [5] stands for this setting: recombinant Hsp97, Kinase-Glo, NA = no notable effect on the enzyme at tested concentrations, >100 = IC50 predicted above 100 μM or maximal inhibition not achieved.
Setting [6] is: recombinant full-length enzyme, Kinase-Glo, 100 μM to 1 nM.
Where [7] appears, read: recombinant full-length enzyme, Kinase-Glo.

Structures are written as SMILES. Entries after “also recorded” stand apart in the source; their conditions may differ. Where two headings read alike, the source gives them in different places.

T1 sequence (P55072 whole entry): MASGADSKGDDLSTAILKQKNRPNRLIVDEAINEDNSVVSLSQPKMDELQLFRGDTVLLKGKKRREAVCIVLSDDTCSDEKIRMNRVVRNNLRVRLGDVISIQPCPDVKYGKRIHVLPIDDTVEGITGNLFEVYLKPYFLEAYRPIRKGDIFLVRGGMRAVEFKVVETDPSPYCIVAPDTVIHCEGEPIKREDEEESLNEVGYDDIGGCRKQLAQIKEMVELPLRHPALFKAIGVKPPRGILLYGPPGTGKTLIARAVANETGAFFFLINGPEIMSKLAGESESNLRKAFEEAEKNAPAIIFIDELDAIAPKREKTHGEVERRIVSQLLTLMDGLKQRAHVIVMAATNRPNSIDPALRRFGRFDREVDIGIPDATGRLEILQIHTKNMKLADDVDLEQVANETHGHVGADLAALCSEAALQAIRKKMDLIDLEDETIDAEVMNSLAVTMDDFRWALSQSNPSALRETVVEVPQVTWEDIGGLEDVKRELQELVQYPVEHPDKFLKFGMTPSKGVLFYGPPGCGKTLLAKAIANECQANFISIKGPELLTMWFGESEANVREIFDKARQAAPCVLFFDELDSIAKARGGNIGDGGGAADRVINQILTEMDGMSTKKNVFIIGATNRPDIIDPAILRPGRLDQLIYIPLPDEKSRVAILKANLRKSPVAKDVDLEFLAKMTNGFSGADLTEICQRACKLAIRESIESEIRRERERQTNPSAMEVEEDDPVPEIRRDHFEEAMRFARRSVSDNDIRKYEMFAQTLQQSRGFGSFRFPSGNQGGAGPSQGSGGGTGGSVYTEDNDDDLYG
Sequence of S. mansoni p97 (Smp_018240) (G4M0P7 entry or part of it): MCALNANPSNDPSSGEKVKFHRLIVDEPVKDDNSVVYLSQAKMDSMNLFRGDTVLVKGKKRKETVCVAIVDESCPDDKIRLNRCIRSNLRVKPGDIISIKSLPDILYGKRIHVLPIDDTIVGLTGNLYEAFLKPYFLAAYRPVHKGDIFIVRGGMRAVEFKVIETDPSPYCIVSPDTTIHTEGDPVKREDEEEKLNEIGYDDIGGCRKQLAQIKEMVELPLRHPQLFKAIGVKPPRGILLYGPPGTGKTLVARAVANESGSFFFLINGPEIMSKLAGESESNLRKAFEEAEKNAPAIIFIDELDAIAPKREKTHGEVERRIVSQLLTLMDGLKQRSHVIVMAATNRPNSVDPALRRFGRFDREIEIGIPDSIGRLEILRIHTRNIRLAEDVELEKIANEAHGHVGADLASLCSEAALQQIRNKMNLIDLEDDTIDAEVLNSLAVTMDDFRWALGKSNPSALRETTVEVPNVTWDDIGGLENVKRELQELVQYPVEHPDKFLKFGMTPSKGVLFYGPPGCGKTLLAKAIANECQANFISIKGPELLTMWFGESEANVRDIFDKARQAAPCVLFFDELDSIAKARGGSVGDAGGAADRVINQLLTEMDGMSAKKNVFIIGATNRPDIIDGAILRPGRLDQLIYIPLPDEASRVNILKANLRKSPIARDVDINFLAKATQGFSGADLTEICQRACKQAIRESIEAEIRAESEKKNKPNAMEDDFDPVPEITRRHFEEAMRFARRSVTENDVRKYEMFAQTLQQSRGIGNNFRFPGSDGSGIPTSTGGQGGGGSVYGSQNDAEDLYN

On to `O=C(C=Cc1ccccc1)Nc1ccc2oc(-c3ccccc3)nc2c1` [Compound 135], for which, in assay [1], the “Screen Inhibition (%)” value is recorded as 1.1% and the “inhibition of S. mansoni p97 function in the screen” value (“inhibition … in the screen” for short) was “inactive”.

Regarding `O=C(C#Cc1ccccc1)Nc1ccc2oc(-c3ccncc3)nc2c1` [Compound 242], the IC50 is 1400 ± 110 nM in assay [2] and 12000 ± 310 nM at H. sapiens p97 (P55072) (setting [5]). Further, the “Fold Selectivity (parasite enzyme over human enzyme)” value (“Fold Selectivity” for short) in assay [2] (setting [4]) is reported as 8.6 fold. Further, the “Screen Inhibition (%)” value in assay [1] came out at 47%. Besides, the “phenotype of adult worms after treatment” value in the assay with adult S. mansoni is “led to death in adult parasites; also recorded: ultimately leading to their death”.

Consider `O=C(C#Cc1ccccc1)Nc1ccc2oc(-c3ccccn3)nc2c1` [Compound 243], for which, in assay [2], the “Fold Selectivity” value is on record as 9.5 fold and the half-inhibitory concentration (IC50) was 2100 ± 750 nM. At H. sapiens p97 (P55072) (setting [5]), the IC50 was 20000 ± 540 nM. Besides, the “Screen Inhibition (%)” value in assay [1] was 46%. In addition, the “phenotype of adult worms after treatment” value in the assay on adult S. mansoni was “led to death in adult parasites; also recorded: ultimately leading to their death”.

For `O=C(C#Cc1ccccc1)Nc1ccc2oc(-c3cccnc3)nc2c1` [Compound 244], in assay [1], the “Screen Inhibition (%)” value was found to be 16%. In the assay on adult S. mansoni, the “phenotype of adult worms after treatment” value was “did not have any adverse effects on worm health and survival”.

On to `O=C(C#Cc1ccccc1)Nc1ccc2oc(-c3ccccc3)nc2c1` [Compound 245], for which, in assay [2], the IC50 was found to be 3800 ± 190 nM. Besides, the “Screen Inhibition (%)” value in assay [1] came to 36%. For the same compound, the “phenotype of adult worms after treatment” value in the assay with adult S. mansoni was “did cause detachment, it did not lead to parasite death”.

For `O=C(/C=C\c1ccccc1)Nc1ccc2oc(-c3ccccc3)nc2c1` [Compound 324], in assay [1], the “Screen Inhibition (%)” value was determined as 1.1% and the “inhibition … in the screen” value was “inactive”.

`O=C(CCc1ccccc1)Nc1ccc2oc(-c3ccccn3)nc2c1` [Compound 326]: in assay [1], the “Screen Inhibition (%)” value turned out to be 2.2% and the “inhibition … in the screen” value is “inactive”.

Regarding `O=C(C#CC1CC1)Nc1ccc2oc(-c3ccccn3)nc2c1` [Compound 732], the “phenotype of adult worms after treatment” value in the assay with adult S. mansoni was “still active on worms”.

`COc1ccc(C#CC(=O)Nc2ccc3oc(-c4ccccn4)nc3c2)cc1` [Compound 734]: the results for the IC50 (in assay [2]; on H. sapiens p97 (P55072) (setting [5])) were 48000 ± 2600 nM and 83000 ± 6500 nM, respectively. Besides, the “Fold Selectivity” value in assay [2] (setting [4]) amounted to 1.7 fold. The “phenotype of adult worms after treatment” value with adult S. mansoni is on record as “decreased activity on the worms”.

For the compound `O=C(C#Cc1cccc(Cl)c1)Nc1ccc2oc(-c3ccccn3)nc2c1` [Compound 735], the half-maximal inhibitory concentration (IC50) in assay [2] is 11000 ± 470 nM; at H. sapiens p97 (P55072) (setting [5]) it was 7300 ± 660 nM. Also, the “Fold Selectivity” value in assay [2] (setting [4]) is reported as 0.70 fold. In addition, the “phenotype of adult worms after treatment” value in the assay with adult S. mansoni is “still active on worms”.

`O=C(C#Cc1ccc(Cl)cc1)Nc1ccc2oc(-c3ccccn3)nc2c1` [Compound 736]: the IC50 in assay [2] was 5900 ± 1300 nM; on H. sapiens p97 (P55072) (setting [5]) it was 6700 ± 55 nM. For the same compound, the “Fold Selectivity” value in assay [2] (setting [4]) was 1.1 fold. Also, the “phenotype of adult worms after treatment” value in the assay with adult S. mansoni is recorded as “decreased activity on the worms”.

Consider `O=C(C#Cc1ccccn1)Nc1ccc2oc(-c3ccccn3)nc2c1` [Compound 737], for which the IC50 in assay [2] was 3000 ± 410 nM; at H. sapiens p97 (P55072) (setting [5]), 13000 ± 2200 nM. In assay [2] (setting [4]), the “Fold Selectivity” value stood at 4.3 fold. Also, in the assay with adult S. mansoni, the “phenotype of adult worms after treatment” value is listed as “decreased activity on the worms”.

With `O=C(C#Cc1cccnc1)Nc1ccc2oc(-c3ccccn3)nc2c1` [Compound 738], the concentration for half-maximal inhibition (IC50) in assay [2] is 420 ± 57 nM; on H. sapiens p97 (P55072) (setting [5]), 780 ± 140 nM. In addition, the “Fold Selectivity” value in assay [2] (setting [4]) amounted to 1.9 fold. In addition, the “phenotype of adult worms after treatment” value with adult S. mansoni is listed as “death of the parasites”.

`O=C(C#Cc1ccncc1)Nc1ccc2oc(-c3ccccn3)nc2c1` [Compound 739]: in assay [2] (setting [4]), the “Fold Selectivity” value was 2.1 fold. Besides, the IC50 in assay [2] (setting [6]) is 150 nM; on H. sapiens p97 (P55072) (setting [5]) it was 320 ± 26 nM. For the same compound, in assay [3], the “accumulation of K48 polyubiquitinated proteins by western blot” value (shortened to “accumulation”) is “on-target activity by western blot”. For the same compound, the “phenotype of adult worms after treatment” value in the assay with adult S. mansoni is on record as “death of the parasites”.

Turning to `Cc1cccnc1-c1nc2cc(NC(=O)C#Cc3ccncc3)ccc2o1` [Compound 804], the IC50 in assay [2] was 190 ± 63 nM; on H. sapiens p97 (P55072) (setting [5]), 140 ± 62 nM. For the same compound, in assay [2] (setting [4]), the “Fold Selectivity” value is 0.70 fold.

Turning to `Cc1ccnc(-c2nc3cc(NC(=O)C#Cc4ccncc4)ccc3o2)c1` [Compound 805], the results for the IC50 (in assay [2]; on H. sapiens p97 (P55072) (setting [5])) were 170 ± 92 nM and 140 ± 78 nM, respectively. Moreover, in assay [2] (setting [4]), the “Fold Selectivity” value came to 0.80 fold.

For the compound `Cc1ccc(-c2nc3cc(NC(=O)C#Cc4ccncc4)ccc3o2)nc1` [Compound 806], the IC50 in assay [2] is 470 ± 170 nM; at H. sapiens p97 (P55072) (setting [5]), 510 ± 160 nM. Also, in assay [2] (setting [4]), the “Fold Selectivity” value is 1.1 fold.

For `Cc1cccc(-c2nc3cc(NC(=O)C#Cc4ccncc4)ccc3o2)n1` [Compound 807], the IC50 in assay [2] is 670 ± 170 nM; on H. sapiens p97 (P55072) (setting [5]), 490 ± 57 nM. Further, the “Fold Selectivity” value in assay [2] (setting [4]) is recorded as 0.70 fold.

Take `c1ccc(CNc2nc(NCc3ccccc3)c3ccccc3n2)cc1` [DbeQ, reference compound]: the values for the half-maximal inhibitory concentration (IC50) (in assay [2] (setting [6]); on H. sapiens p97 (P55072) (setting [7])) were 12000 nM and 910 ± 390 nM, respectively. In assay [3], the “accumulation” value is “did not observe the same accumulation”. For the same compound, the “phenotype of adult worms after treatment” value in the assay on adult S. mansoni is listed as “activity on the worms”.

`CC1(C)C(N(O)C(=O)Nc2ccc(Cl)cc2)N(c2ccc(Cl)cc2)C(=O)N1CC(=O)N/N=C/C=C/c1ccc([N+](=O)[O-])o1` (stereo not shown) [Eeyarestatin I, reference compound]: the “accumulation” value in assay [3] is “did not see significant increases in K48 abundance”. The “phenotype of adult worms after treatment” value with adult S. mansoni is given as “effective”.

Turning to `COc1cccc2c(NCc3ccccc3)nc(-n3c(N)nc4ccccc43)nc12` [ML240, reference compound], the “Fold Selectivity” value in assay [2] is “~ fivefold”. The IC50 came to 66 ± 9.7 nM in assay [2] (setting [6]) and 330 ± 61 nM at H. sapiens p97 (P55072) (setting [7]). Further, the “accumulation” value in assay [3] is “did not observe the same accumulation”. The “phenotype of adult worms after treatment” value in the assay on adult S. mansoni is recorded as “killed parasites quickly”.
